Measurements: patent US11926579B1, “8-(4-methoxybenzylideneamino)naphthalene-1,3-disulfonic acid as an antioxidant compound” (KING FAISAL UNIVERSITY, priority 2023, dated 2024)

Experiment: DPPH radical scavenging antioxidant test
Format: biochemical
Details: for Inhibition (radical scavenging inhibition) / A (absorbance): DPPH 0.2 mL (0.75 mM), compound 3 μM in ethanol, 30 min incubation in the dark; for A (absorbance): read at 517 nm against a blank
Procedure: The antioxidant properties of the 8-(4-methoxybenzylideneamino)naphthalene-1,3-disulfonic acid were studied by adding 0.2 mL DPPH (0.75 mM)) to compound 8-(4-methoxybenzylideneamino) naphthalene-1,3 -di sulfonic acid (III) (3 μM) in ethanol. After 30 min of incubation in the dark, the absorbance was read against a blank at 517 nm. Ascorbic acid (vitamin C) was used as standard antioxidants (positive control). A blank sample was prepared by 0.2 ml of DPPH in 3 ml ethanol. A negative control sample was run using ethanol instead of the sample. The radical scavenging inhibition was calculated using the following equation: […]

Row | SMILES | Inhibition (radical scavenging inhibition) (517 nm) | A (absorbance) | antioxidant potential (DPPH), in words (DPPH in vitro test, 517 nm, vitamin C as positive control)
1 | O=C1O[C@H]([C@@H](O)CO)C(O)=C1O [vit c, Ascorbic acid, reference compound] | 74% | 0.12 | 
2 | COc1ccc(/C=N/c2cccc3cc(S(=O)(=O)O)cc(S(=O)(=O)O)c23)cc1 [Product III, 8-(4-methoxybenzylideneamino)naphthalene-1,3-disulfonic acid] | 50% | 0.22 | high potential as an antioxidant compared to vitamin C
